Data set [1] concerns GFAP-DN-erbB4 mice. In words: Hot plate test (thermal nociception) in GFAP-DN-erbB4 mice treated topically with XIB4035 cream. Type of data set: in vivo, mouse. Conditions: cream 1.2 mM on hind paws twice daily for 4 weeks from P21, vs control cream. The method, then:
(§1) We generated a cream containing XIB4035 (1.2 mM) and applied it directly to the hind paws of GFAP-DN-erbB4 and wild type mice twice daily for a period of 4 weeks starting at the time of weaning (P21). […] Thus, these experiments would test whether activation of Ret signaling has therapeutic effects after disease onset. To control for potential effects of the control cream, mice of both genotypes were treated in the same way with the base cream without the drug. Mice were tested for responses to noxious thermal stimulus prior to the initiation of treatment and every 7 days throughout the treatment period. […] Together, these findings indicate that topical treatment with XIB4035 preserves the ability of mice with SFN to respond to noxious heat stimulus without inducing hypersensitivity.
(§2) Animals and induction of neuropathy using RTX. Transgenic mouse lines used were as previously described (6, 8). Animals were kept in the animal facility with free access to food and water. Behavioral experiments were performed in a quiet environment at the same time of day. […] Paw withdrawal latency was measured as the time required for the mouse to visibly respond to the thermal stimulus, e.g. licking paws, lifting paws, or jumping off of the plate. […] The threshold was determined as the lowest force that evoked a visible withdrawal response. […]

In data set [2] the test system is wild type mice. Nature of the data set: Hot plate test (thermal nociception) in wild type mice treated topically with XIB4035 cream. Type of data set: in vivo. Conditions: cream 1.2 mM on hind paws twice daily for 4 weeks from P21. The method, then: as §1, §2
Data set [3] deals with GFAP-DN-erbB4 and wild type mice. Nature of the data set: Mechanical sensitivity (von Frey filaments) after topical XIB4035 cream. The format is in vivo. Conditions: all groups (GFAP-DN-erbB4 and wild type) after 4 weeks of topical treatment, 1.2 mM cream. The method, then: as §1, §2
The test system of data set [4] is GFAP-DN-erbB4 mice. In words: Electron microscopy / morphometric analysis of Remak bundles in GFAP-DN-erbB4 mice. Type of data set: in vivo, mouse. The conditions noted are these: 4-week topical treatment, 1.2 mM cream. The method, then: (§3) Preparation and Use of XIB4035. The cream containing XIB4035 (1.2 mM, Matrix Scientific, Columbia, S.C.) consisted of N-methyl-pyrrolidone (5%), isopropyl myristate (5%) and petroleum jelly (90%). Control cream had the same ingredients without XIB4035. Cream was applied twice daily to the hind paws of isoflurane anesthetized mice starting at P21 for a period of 9 days (for analysis of cell death in sciatic nerves) or 4 weeks (all other studies using GFAP-DN-erbB4). Treatment of RTX-induced neuropathy began at the time of RTX injection or 12 hours after RTX injection and proceeded twice daily for a period of one week.
(§4) Plastic Embedding and Electron Microscopy. Tissue was prepared as in (6). Briefly, mice were perfused intracardially with 2% paraformaldehyde, 2.5% gluteraldehyde and 0.03% picric acid in 0.1 M cacodylate buffer (pH 7.2). Tissue was post-fixed overnight at 4° C. and embedded in Epon. Ultrathin sections were cut, collected on cellodin-coated grids and stained using uranyl acetate and lead citrate. Photographs were taken using the Tecnai G^2 Spirit BioTWIN transmission electron microscope.

The subject of data set [5] is GFAP-DN-erbB4 mice. Nature of the data set: Cell death detection (TUNEL) in sciatic nerves of GFAP-DN-erbB4 mice. The format is in vivo, mouse. Conditions: sciatic nerve, topical cream 1.2 mM twice daily for 9 days from P21. The method, then: as §3
Cell Death Detection. Sciatic nerves were dissected from mice perfused with 4% paraformaldehyde in PBS and fixed overnight at 4° C. Nerves were embedded in OCT and 16 µm thick transverse sections were processed for TUNEL as follows. Sections were washed 3 times for 5 minutes with PBS followed by proteinase K digestion (0.02 U/mL) in 10 mM TRIS/HCl pH 7.5 for 30 minutes at 37° C. Digested sections were fixed with 4% paraformaldehyde at room temperature for 20 minutes followed by 3 washes in PBS for 5 minutes. Apoptotic nuclei were identified using the In Situ Cell Death Detection Kit (Roche). Nuclei were stained with DAPI and sections were mounted with Gel-Mount.

For data set [6], the system named is GFAP-DN-erbB4 mice. In words: Footpad skin innervation (PGP9.5 immunohistochemistry) in GFAP-DN-erbB4 mice. Type of data set: in vivo, mouse. Conditions: 4-week topical treatment, 1.2 mM cream. The method, then: as §3
(§5) Immunohistochemistry. Mice were anesthetized with 2.5% Avertin and footpad skin was removed and immersion fixed in 4% paraformaldehyde, 14% picric acid in 0.1 M phosphate buffer (pH 7.3) overnight at 4° C. and cryoprotected in 20% sucrose overnight at 4° C. Tissues were embedded in OCT and sectioned at 30 µm and stained as floating sections by washing 3 times for 5 minutes in PBS+0.1% Triton-X 100, blocked for 30 minutes in PBS+0.1% Triton-X 100+10% normal goat serum and then incubated, PGP9.5 rabbit polyclonal antibody (Ultraclone, 1:1000), overnight at 4° C. Sections were washed 3 times for 10 minutes in PBS+0.1% Triton-X 100 then incubated in donkey anti-rabbit Alexa-488 (Invitrogen) 1:300 for 2 hours at room temperature. […]

The test system of data set [7] is wild type mice. Nature of the data set: Footpad skin innervation (PGP9.5 immunohistochemistry) in wild type mice. Type of data set: in vivo, mouse. The conditions noted are these: 4-week topical treatment, 1.2 mM cream. The method, then:
as §3, §5

The test system of data set [8] is RTX-injected mice. In words: Hot plate test in resiniferatoxin (RTX)-induced SFN. Type of data set: in vivo, mouse. An excerpt: (§6) As it is unlikely that SFN is always caused by glial dysfunction, we considered it necessary to test the effectiveness of XIB4035 treatment on SFN resulting from a different pathogenic mechanism. Therefore we tested the efficacy of our therapeutic approach in resiniferatoxin (RTX)-induced SFN (9). RTX-induced SFN involves intraperitoneal injection of an ultrapotent capsaicin analog that targets c-fiber terminals by binding to and activating TRPV1 channels resulting in calcium influx, which induces loss of skin innervation and loss of thermal nociception (9). After RTX injection, mice were either treated immediately with XIB4035 or treatment was delayed by 12 hours. Both treatment paradigms yielded similar results.
(§7) Furthermore, innervation of the skin was preserved as a result of XIB4035 treatment in RTX-injected mice. […] Both c-fiber area and the number of fibers per Remak bundle were improved by treatment with XIB4035 in RTX-induced SFN.
Animals and induction of neuropathy using RTX. Transgenic mouse lines used were as previously described (6, 8). Animals were kept in the animal facility with free access to food and water. […] Paw withdrawal latency was measured as the time required for the mouse to visibly respond to the thermal stimulus, e.g. licking paws, lifting paws, or jumping off of the plate. […] The threshold was determined as the lowest force that evoked a visible withdrawal response. […]

Data set [9] has as its system RTX-injected mice. Nature of the data set: Skin innervation in RTX-induced SFN. Type of data set: in vivo, mouse. The conditions noted are these: topical cream 1.2 mM twice daily for one week.
Excerpt: as §6, §7
Preparation and Use of XIB4035. The cream containing XIB4035 (1.2 mM, Matrix Scientific, Columbia, S.C.) consisted of N-methyl-pyrrolidone (5%), isopropyl myristate (5%) and petroleum jelly (90%). Control cream had the same ingredients without XIB4035. […]

The test system of data set [10] is RTX-injected mice. Nature of the data set: Remak bundle structure (electron microscopy) in RTX-induced SFN. Type of data set: in vivo, mouse. Conditions: topical cream 1.2 mM twice daily for one week.
Excerpt: as §6, §7, §3, §4

Data set [11] has as its target T1, GFR[…]1 GDNF receptor (Homo sapiens, UniProt P56159).
T1 sequence (P56159 25-429): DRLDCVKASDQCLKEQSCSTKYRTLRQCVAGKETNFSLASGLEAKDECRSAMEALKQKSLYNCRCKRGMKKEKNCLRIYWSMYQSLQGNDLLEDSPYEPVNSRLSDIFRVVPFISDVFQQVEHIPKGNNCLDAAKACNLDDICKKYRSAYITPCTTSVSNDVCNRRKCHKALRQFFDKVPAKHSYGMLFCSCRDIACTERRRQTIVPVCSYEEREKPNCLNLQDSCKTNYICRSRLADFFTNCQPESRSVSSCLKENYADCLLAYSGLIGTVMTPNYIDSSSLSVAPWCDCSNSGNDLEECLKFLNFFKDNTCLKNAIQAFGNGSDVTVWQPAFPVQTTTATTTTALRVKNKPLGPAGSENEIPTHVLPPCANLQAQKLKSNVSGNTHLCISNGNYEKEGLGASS
The conditions noted are these: human cells; reference 11; cited from earlier work.

The target in data set [12] is T2, GFR[…]1 GDNF receptor (Mus musculus, UniProt P97785).
T2 sequence (P97785 25-430): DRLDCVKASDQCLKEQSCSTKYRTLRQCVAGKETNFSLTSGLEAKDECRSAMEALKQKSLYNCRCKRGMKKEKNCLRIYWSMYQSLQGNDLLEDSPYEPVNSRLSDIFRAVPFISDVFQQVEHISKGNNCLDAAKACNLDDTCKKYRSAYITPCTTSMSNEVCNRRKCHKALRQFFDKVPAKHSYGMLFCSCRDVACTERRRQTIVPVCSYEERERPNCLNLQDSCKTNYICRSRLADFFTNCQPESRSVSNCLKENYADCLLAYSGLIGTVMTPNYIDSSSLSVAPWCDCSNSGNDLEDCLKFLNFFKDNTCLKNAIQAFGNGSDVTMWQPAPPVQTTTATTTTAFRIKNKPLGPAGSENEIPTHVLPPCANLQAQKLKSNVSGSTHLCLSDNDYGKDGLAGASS
Conditions: murine cells; reference 11; cited from earlier work.

Structures are written as SMILES.

Consider `CCN(CC)CCCC(C)Nc1cc(/C=C/c2ccccc2Cl)nc2cc(Cl)ccc12` (centres unmarked) [XIB4035, N4-{7-chloro-2-[(E)-2-(2-chloro-phenyl)-vinyl]-quinolin-4-yl}-N1,N1-diethyl-pentane-1,4-diamine], for which the “thermal nociception (hot plate, response to noxious thermal stimulus)” value with GFAP-DN-erbB4 mice [1] is listed as “dramatic preservation of thermal nociception”. The “behavior in response to noxious thermal stimulus” value in the data set with wild type mice [2] is “remained normal”. In addition, the “response thresholds to punctate mechanical stimuli (mechanoreception)” value in data set [3] is “no effect on mechanoreception”. For the same compound, in the data set with GFAP-DN-erbB4 mice [4], the “degeneration of Remak bundles and c-fiber axons” value was “prevented the degeneration of Remak bundles and c-fiber axons”; the “number of c-fibers per Remak bundle (morphometric analysis)” value is reported as “preserved”; the “size of c-fiber axons (morphometric analysis)” value is given as “preserved”. In addition, the NMSC apoptosis entry with GFAP-DN-erbB4 mice [5] is “significantly reduced”. For the same compound, the “sensory nerve terminals in the footpad skin” value in the data set on GFAP-DN-erbB4 mice [6] was “prevented degeneration of sensory nerve terminals”. Further, in the data set on wild type mice [7], the “density of nerve terminals in skin” value is on record as “increased the density of nerve terminals”. In the data set with RTX-injected mice [8] (RTX model, cream 1.2 mM twice daily for one week, started at RTX injection or 12 hours later (similar results)), the thermal nociception entry is “greatly improved thermal nociception”. For the same compound, the “ability to respond to noxious heat (paw withdrawal latency)” value in the data set with RTX-injected mice [8] (RTX-injected mice, seven days after RTX, vs control cream) is listed as “remarkable preservation of their ability to respond to noxious heat”. In addition, in the data set with RTX-injected mice [9], the “innervation of the skin” value was “preserved”. Also, in the data set with RTX-injected mice [10] (RTX-induced SFN), the c-fiber area result was “improved” and the “number of fibers per Remak bundle” value was “improved”. Further, in the data set on RTX-injected mice [10] (RTX-injected mice), the Remak bundle structure result is “significantly improved”. The “activation of the Ret co-receptor by binding to the GDNF receptor” value at GFR[…]1 GDNF receptor [11] is on record as “activate the Ret co-receptor”. Further, the “activation of the Ret co-receptor by binding to the GDNF receptor” value on GFR[…]1 GDNF receptor [12] was “activate the Ret co-receptor”.
